# Read-outs that look alike come from different tables or passages of the source.
# Experiments:
# [1] = test system: P. aeruginosa PA14 and Mar2xT7 transposon mutants; assay: MIC microbroth dilution assay, thiostrepton susceptibility of PA14 and mutants; assay type: cell-based, Pseudomonas aeruginosa; settings: for MIC / IC50: Pseudomonas aeruginosa, VBMM; for IC50: read-out: ICCO
# Experimental: MICs were determined with microbroth dilution assays in Nunc 96-well plates. Vehicle controls consisted of 1:75 dilutions of DMSO in 10:90 inoculated with PA14 or its mutants as described in “Growth Curves” above. Sterile controls consisted of 1:75 dilutions of DMSO in 10:90. Seven serially diluted concentrations of TS—with 17 μg/mL being the highest final concentration—was set up in triplicate. Tests were done with 1:75 dilutions of each TS concentration in 10:90 inoculated with PA14 or its mutants as described in Growth Curves. Plates were sealed to prevent evaporation and incubated with shaking at 200 rpm, 16 h, 37° C. The OD600 of the plates was read (Multiskan Go—Thermo Fisher Scientific) and used to calculate MIC. Growth is proportional to the darkness intensity whereas white indicates no observable growth. The final volume of each well was 150 μL and each experiment was repeated at least three times.
# To identify the route of iron-limitation dependent TS entry into P. aeruginosa, the susceptibility of mutants from the ordered PA14 transposon library (15) that had insertions in genes encoding known siderophore receptors, as well as mutants with insertions in uncharacterized OM proteins with homology to siderophore receptors was tested. In VBMM, most mutants had MICs similar to those of the parental strain (Table 1). […]. P. aeruginosa encodes two type I pyoverdine receptors, FpvA and FpvB, with ˜39% amino acid identity (71% similarity). […]. When fpvA was deleted in the fpvB background, the double mutant had similar resistance levels to the fpvA single mutant (Table 1), but complementation of that mutant with fpvB on a low-copy number plasmid increased TS susceptibility (Table 1).
# [2] = test system: Acinetobacter baumannii clinical isolates; assay: Clinical isolates testing, A. baumannii; assay type: cell-based; settings: 10:90
# Experimental: (§1) Clinical isolates of P. aeruginosa and A. baumannii were inoculated from −80° C. stocks into 200 μL LB broth and grown with shaking at 200 rpm, 16 h, 37° C. in Nunc 96-well plates. The overnight cultures were subcultured (1:25 dilution) into 10:90 and grown with shaking at 200 rpm, 2 h, 37° C. Vehicle controls consisted of 4 μL of DMSO, 144 μL 10:90 and 2 μL of subculture. Sterile controls consisted of 4 μL of DMSO and 146 μL 10:90. […]. The final volume of each well was 150 μL and each checkerboard was repeated at least three times. Plates were incubated with shaking at 200 rpm, 16 h, 37° C. and OD600 was measured (Multiskan Go—Thermo Fisher Scientific). The results were plotted as percent of control (wells containing only DMSO) using Prism (GraphPad).
# (§2) Clinical isolates were grown and tested as described in Example 1. Briefly, clinical isolates were inoculated from glycerol stocks stored at −80° C. into Nunc 96-well plates and grown overnight at 37° C., for 16 h with shaking in LB (200 rpm). Overnights were subcultured (1:25) into fresh 10:90 medium and grown for 2 h under the same growth conditions. Subcultures were diluted 1:75 in fresh 10:90. Compounds were diluted 1:75 to obtain the final concentration. DOXY and CLI were added at a final concentration of 1 μg/mL, CO was used at 2 μg/mL, TRO was used at 4 μg/mL, TS was used at 8.3 μg/mL, and DSX was used at 32 μg/mL. Vehicle and sterility controls were included. Plates were incubated overnight with the same conditions. The OD600 was read (Multiscan Go—Thermo Fisher Scientific), analyzed using Excel, and the data plotted using Prism (GraphPad).
# (§3) Culture conditions, checkerboard assays using P. aeruginosa PA14 and dose-response assays were performed as described in Example 1. In addition to TS, other thiopeptides tested were siomycin A (SM), thiocillin I (TC), micrococcin P1 (MC), nosiheptide (NH), berninamycin A (BER), and geninthiocin A (GEN). For dose response assays of the combinations conducted in 10:90, DSX concentration was constant at 64 μg/mL.
# [3] = test system: P. aeruginosa clinical isolates; assay: Clinical isolates testing, P. aeruginosa; assay type: cell-based, Pseudomonas aeruginosa; settings: Pseudomonas aeruginosa; approximately 1 in 10 of 96 clinical isolates; 10:90
# Experimental: as §1, §2, §3
# [4] = Chrome azurol S (CAS) plate assay; assay type: physicochemical; settings: 5 μl of 2 mg/ml; room temperature 1 h
# [5] = PA14, strain chtA::Mar2xT7 (PA4675)
# [6] = PA14, strain fithA::Mar2xT7 (PA4516)
# [7] = PA14, strain fiuA::Mar2xT7 (PA0470)
# [8] = PA14, strain foxA::Mar2xT7 (PA2466)
# [9] = PA14, strain fptA::Mar2xT7 (PA4221)
# [10] = PA14, strain fpvA fpvB::Mar2xT7 (PA2398, PA4168)
# [11] = PA14, strain fpvA fpvB::Mar2xT7 + pUCP20-fpvB
# [12] = PA14, strain fpvA fpvB::Mar2xT7 + pUCP20
# [13] = PA14, strain fpvA::Mar2xT7 (PA2398)
# [14] = PA14, strain fpvB::Mar2xT7 (PA4168)
# [15] = PA14, strain hasR::Mar2xT7 (PA3408)
# [16] = PA14, strain pfeA::Mar2xT7 (PA2688)
# [17] = PA14, strain phuR::Mar2xT7 (PA4710)
# [18] = PA14, strain pirA::Mar2xT7 (PA0931)
# [19] = PA14, strain piuA::Mar2xT7 (PA4514)
# [20] = PA14, strain pvdA::Mar2xT7 (PA2386)
smiles,measurement,setting,value
"C=C(NC(=O)C(=C)NC(=O)c1csc(C2=N[C@@H]3c4csc(n4)[C@H]4NC(=O)c5csc(n5)[C@H]([C@](C)(O)[C@@H](C)O)NC(=O)[C@H]5CSC(=N5)/C(=C/C)NC(=O)[C@H]([C@@H](C)O)NC(=O)c5csc(n5)[C@]3(CC2)NC(=O)[C@H](C)NC(=O)C(=C)NC(=O)[C@H](C)NC(=O)[C@H]([C@@H](C)CC)N[C@@H]2C=Cc3c([C@H](C)O)cc(nc3[C@H]2O)C(=O)O[C@@H]4C)n1)C(N)=O [TS, thiostrepton]",susceptibility to TS in Mueller-Hinton broth,"[1]; P. aeruginosa PA14, nutrient-rich MHB versus 10:90",reduced susceptibility
same,MIC,"[1]; PA14, strain PA14 (wild type)",0.6 µM
same,IC50,"[1]; PA14, strain PA14 (wild type)",0.26 mg/L
same,MIC,"[1]; PA14, strain PA0151::Mar2xT7",0.45 µM
same,IC50,"[1]; PA14, strain PA0151::Mar2xT7",0.26 mg/L
same,MIC,"[1]; PA14, strain PA1322::Mar2xT7",0.41 µM
same,IC50,"[1]; PA14, strain PA1322::Mar2xT7",0.26 mg/L
same,MIC,"[1]; PA14, strain PA4837::Mar2xT7",0.41 µM
same,IC50,"[1]; PA14, strain PA4837::Mar2xT7",0.26 mg/L
same,MIC,[1]; [5],0.36 µM
same,IC50,[1]; [5],0.59 mg/L
same,MIC,[1]; [6],0.5 µM
same,IC50,[1]; [6],0.26 mg/L
same,MIC,[1]; [7],0.36 µM
same,IC50,[1]; [7],0.26 mg/L
same,MIC,[1]; [8],0.6 µM
same,IC50,[1]; [8],0.26 mg/L
same,MIC,[1]; [9],0.45 µM
same,IC50,[1]; [9],0.26 mg/L
same,MIC,[1]; [10],7.5 µM
same,IC50,[1]; [10],6.9 mg/L
same,MIC,[1]; [11],2.5 µM
same,IC50,[1]; [11],2.8 mg/L
same,MIC,[1]; [12],7.5 µM
same,IC50,[1]; [12],4.2 mg/L
same,MIC,[1]; [13],7.5 µM
same,IC50,[1]; [13],3.7 mg/L
same,MIC,[1]; [14],1.3 µM
same,IC50,[1]; [14],1.8 mg/L
same,MIC,[1]; [15],0.6 µM
same,IC50,[1]; [15],0.35 mg/L
same,MIC,[1]; [16],0.82 µM
same,IC50,[1]; [16],0.26 mg/L
same,MIC,[1]; [17],0.21 µM
same,IC50,[1]; [17],0.26 mg/L
same,MIC,[1]; [18],0.6 µM
same,IC50,[1]; [18],0.35 mg/L
same,MIC,[1]; [19],0.36 µM
same,IC50,[1]; [19],0.35 mg/L
same,MIC,[1]; [20],0.21 µM
same,IC50,[1]; [20],0.26 mg/L
same,susceptibility of A. baumannii strain C0286,[2],resistant
same,activity at 5 µM,"[2]; Acinetobacter baumannii, 5 μM TS, 6 of 10 strains, read-out: growth, % of control",≤ 50%
same,MIC,[3],≥ 5 µM
same,decolorization of CAS agar (iron binding),[4],lack of a color change

# — patent US20220168384A1, “Anti-Bacterial Combination Therapy” (McMaster University, priority 2019, published 2022)
